From patent US20090012103A1, “SUBSTITUTED HETEROCYCLIC COMPOUNDS” (priority 2007, published 2009)

Assays:
[1] = target: T1, wild-type human cardiac sodium channel, hNav1.5 (Homo sapiens, UniProt Q14524); assay: Late INa screening assay (late sodium current, PatchXpress whole cell patch clamp); type: cell-based; conditions: read-out: Late INa % blk
[2] = target: T1, wild-type human cardiac sodium channel, hNav1.5; assay: Peak INa screening assay (tonic block TB and use-dependent block UDB of peak sodium current); type: cell-based; conditions: compound at 10 μM
Procedure: The late sodium current (Late INa) and peak sodium current (Peak INa) assays are performed on an automated electrophysiology platform, PatchXpress 7000A (MDS Analytical Technologies, Sunnyvale, Calif.), which uses the whole cell patch clamp technique to measure currents through the cell membrane of up to 16 cells at a time. The assay uses an HEK293 (human embryonic kidney) cell line heterologously expressing the wild-type human cardiac sodium channel, hNav1.5, purchased from Millipore (Billerica, Mass.). No beta subunits were coexpressed with the Na channel alpha subunit. […] Experiments are carried out at 24-27° C.
For both the Late INa and Peak INa assays, series resistance compensation is set to 50% and whole-cell compensation is performed automatically. […] Currents through open sodium channels are automatically recorded and stored in the DataXpress2 database (MDS Analytical Technologies, Sunnyvale, Calif.). Analysis is performed using DataXpress2 analysis software and data are compiled in Excel.
Compound stocks are routinely made in glass vials to 10 mM in dimethyl sulfoxide (DMSO). In some cases, when compounds are not soluble in DMSO, they are made in 100% ethanol. Stocks are sonicated as necessary. The extracellular solution for screening Late INa is composed of: 140 mM NaCl, 4 mM KCl, 1.8 mM CaCl2, 0.75 mM MgCl2, and 5 mM HEPES with pH adjusted to 7.4 using NaOH. The extracellular solution for screening Peak INa is composed of: 20 mM NaCl, 120 mM N-methyl-D glucamine, 4 mM KCl, 1.8 mM CaCl2, 0.75 mM MgCl2, and 5 mM HEPES with pH adjusted to 7.4 using HCl. The intracellular solution used to perfuse the inside of the cells for both the Late INa and Peak INa assays contains: 120 mM CsF, 20 mM CsCl, 5 mM EGTA, 5 mM HEPES and pH adjusted to 7.4 with CsOH. Compounds are diluted in extracellular solution to 10 μM in glass vials and then transferred to glass well plates before robotic addition to the cells. The 0 Na extracellular solution used at the end of each experiment for the Late INa and Peak INa assays to measure baseline current contains: 140 mM N-methyl-D-glucamine; 4 mM KCl; 1.8 mM CaCl2; 0.75 mM MgCl2; 5 mM HEPES and pH was adjusted to 7.4 with HCl.
Compounds were also evaluated for their effect in several other assays, including their effect on Peak INa. In some cases, the effect on Peak INa was measured using data from the Late INa assay. […] Since the peak INa can be very large, introducing artifacts in the recording, the concentration of Na^+ in the bath is reduced to 20 mM and a nonpermeant cation is added to compensate for the Na^+ that was omitted from the standard extracellular solution (see above). The peak INa assay uses a holding potential of −100 mV and a 20 ms test pulse to 0 mV to activate the channel. As in the Late INa assay, stepping the voltage to 0 mV causes a rapid increase in negative Na current through hNav1.5 that inactivates within a few ms. No late INa activator is added for the peak assay.
For the separate peak INa assay, both tonic (TB) block and use-dependent (UDB) block of peak inward sodium current by 10 μM compound are determined. TB is block of the channel in the resting state, before the channel opens. TB is simulated in this assay by stimulating the channel to open at a low frequency (0.1 Hz). This is done in order to measure the control current amplitude and monitor current rundown, enabling correction for rundown in the calculation of percent block for TB.

hERG potassium channel = hERG potassium channel (Homo sapiens, UniProt Q12809); assay: hERG screening assay (PatchXpress patch clamp, CHO cell line)
[3] = tonic block, read-out: Tonic Peak INa % blk
[4] = use-dependent block, read-out: UDB Peak INa % blk

hERG potassium channel, sequence (Q12809 whole entry): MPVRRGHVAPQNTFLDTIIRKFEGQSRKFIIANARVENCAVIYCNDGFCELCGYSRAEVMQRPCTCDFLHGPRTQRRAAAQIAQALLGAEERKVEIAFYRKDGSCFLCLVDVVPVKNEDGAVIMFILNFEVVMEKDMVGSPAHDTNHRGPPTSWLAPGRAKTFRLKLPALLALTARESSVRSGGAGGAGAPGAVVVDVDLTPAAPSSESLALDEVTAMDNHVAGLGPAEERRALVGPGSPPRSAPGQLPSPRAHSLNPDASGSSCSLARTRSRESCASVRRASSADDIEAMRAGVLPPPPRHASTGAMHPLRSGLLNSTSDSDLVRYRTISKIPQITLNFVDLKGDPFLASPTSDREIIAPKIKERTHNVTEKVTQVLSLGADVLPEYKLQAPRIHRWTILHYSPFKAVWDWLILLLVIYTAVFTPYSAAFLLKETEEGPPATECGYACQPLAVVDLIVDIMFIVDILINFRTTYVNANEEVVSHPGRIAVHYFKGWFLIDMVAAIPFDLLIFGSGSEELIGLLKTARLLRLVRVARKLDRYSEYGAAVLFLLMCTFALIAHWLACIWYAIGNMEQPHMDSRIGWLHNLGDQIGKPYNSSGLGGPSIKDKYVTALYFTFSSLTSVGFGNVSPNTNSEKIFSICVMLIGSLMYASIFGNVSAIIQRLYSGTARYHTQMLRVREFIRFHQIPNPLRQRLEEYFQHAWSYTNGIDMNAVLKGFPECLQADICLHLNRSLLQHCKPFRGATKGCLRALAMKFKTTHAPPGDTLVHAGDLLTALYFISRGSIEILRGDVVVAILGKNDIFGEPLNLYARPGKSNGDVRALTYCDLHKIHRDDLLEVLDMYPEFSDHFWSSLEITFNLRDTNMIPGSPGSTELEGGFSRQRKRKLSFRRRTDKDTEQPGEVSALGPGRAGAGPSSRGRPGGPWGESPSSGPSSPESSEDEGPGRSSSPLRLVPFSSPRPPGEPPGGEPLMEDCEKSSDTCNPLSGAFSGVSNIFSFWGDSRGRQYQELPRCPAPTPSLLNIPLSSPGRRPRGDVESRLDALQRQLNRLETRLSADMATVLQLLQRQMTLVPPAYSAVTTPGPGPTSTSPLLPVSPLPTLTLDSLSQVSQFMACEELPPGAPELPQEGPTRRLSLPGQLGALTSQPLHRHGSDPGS
T1 sequence (Q14524 whole entry): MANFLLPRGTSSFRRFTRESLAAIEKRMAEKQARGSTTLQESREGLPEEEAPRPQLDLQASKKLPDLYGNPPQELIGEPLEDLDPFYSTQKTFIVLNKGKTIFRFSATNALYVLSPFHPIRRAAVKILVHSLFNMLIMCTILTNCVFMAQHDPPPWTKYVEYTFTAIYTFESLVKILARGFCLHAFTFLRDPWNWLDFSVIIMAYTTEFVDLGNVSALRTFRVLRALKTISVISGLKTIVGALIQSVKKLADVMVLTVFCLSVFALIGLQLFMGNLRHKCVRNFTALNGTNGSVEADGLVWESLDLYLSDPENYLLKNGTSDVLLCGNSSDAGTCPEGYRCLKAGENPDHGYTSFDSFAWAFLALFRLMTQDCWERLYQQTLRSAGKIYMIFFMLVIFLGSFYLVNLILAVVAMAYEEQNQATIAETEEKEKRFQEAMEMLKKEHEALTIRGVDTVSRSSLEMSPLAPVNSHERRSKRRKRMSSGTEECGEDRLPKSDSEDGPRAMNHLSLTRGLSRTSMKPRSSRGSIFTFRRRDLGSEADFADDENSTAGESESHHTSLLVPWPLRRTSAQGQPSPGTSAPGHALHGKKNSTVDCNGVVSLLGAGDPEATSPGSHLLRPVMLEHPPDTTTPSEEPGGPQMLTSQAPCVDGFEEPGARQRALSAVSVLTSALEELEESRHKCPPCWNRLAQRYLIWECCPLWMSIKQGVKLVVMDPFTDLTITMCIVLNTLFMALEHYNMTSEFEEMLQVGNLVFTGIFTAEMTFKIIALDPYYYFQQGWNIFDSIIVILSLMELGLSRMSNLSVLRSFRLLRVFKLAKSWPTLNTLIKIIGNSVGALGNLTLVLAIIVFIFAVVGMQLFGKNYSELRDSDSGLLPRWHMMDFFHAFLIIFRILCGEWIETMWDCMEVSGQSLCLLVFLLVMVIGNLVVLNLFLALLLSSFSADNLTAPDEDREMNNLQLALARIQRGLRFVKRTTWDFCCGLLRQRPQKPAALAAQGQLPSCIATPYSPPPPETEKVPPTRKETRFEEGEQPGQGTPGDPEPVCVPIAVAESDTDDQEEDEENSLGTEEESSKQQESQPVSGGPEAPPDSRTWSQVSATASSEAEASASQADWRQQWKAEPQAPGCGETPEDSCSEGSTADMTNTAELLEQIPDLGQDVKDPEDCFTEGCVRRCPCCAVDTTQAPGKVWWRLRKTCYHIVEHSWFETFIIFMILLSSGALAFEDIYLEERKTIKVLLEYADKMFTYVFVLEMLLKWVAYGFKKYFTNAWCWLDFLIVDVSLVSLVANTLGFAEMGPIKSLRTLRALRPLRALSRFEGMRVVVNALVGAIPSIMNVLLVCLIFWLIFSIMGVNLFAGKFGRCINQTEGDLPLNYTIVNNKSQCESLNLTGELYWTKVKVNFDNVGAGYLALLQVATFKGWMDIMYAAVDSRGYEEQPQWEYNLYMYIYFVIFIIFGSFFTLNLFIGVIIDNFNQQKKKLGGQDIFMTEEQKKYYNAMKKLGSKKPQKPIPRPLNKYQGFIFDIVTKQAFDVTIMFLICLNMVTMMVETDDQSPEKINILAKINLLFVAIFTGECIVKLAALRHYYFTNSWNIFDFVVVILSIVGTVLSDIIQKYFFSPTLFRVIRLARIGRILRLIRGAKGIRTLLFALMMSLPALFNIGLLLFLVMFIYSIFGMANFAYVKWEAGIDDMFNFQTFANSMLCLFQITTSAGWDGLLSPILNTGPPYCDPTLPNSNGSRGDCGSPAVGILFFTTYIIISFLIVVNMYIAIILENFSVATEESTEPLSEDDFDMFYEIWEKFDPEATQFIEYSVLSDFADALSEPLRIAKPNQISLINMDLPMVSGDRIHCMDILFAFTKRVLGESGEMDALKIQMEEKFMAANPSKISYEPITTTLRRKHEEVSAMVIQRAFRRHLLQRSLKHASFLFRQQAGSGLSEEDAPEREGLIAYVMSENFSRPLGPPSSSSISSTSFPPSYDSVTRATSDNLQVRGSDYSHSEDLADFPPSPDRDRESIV

Structure (SMILES)	inhibition at 10 µM ([1]; compound at 10 μM) [%]	inhibition at 10 µM [2, 3] [%]	hERG Patch Clamp hERG % blk (hERG potassium channel; 1 μM) [%]	hERG Patch Clamp hERG % blk (hERG potassium channel; 10 μM) [%]	inhibition at 10 µM [1] [%]	inhibition at 10 µM [2, 4] [%]
CC1=C(C(=O)OCc2ccccc2)C(c2cccc3ccccc23)n2nnnc2N1C (stereo not shown) [PT-195, benzyl 4,5-dimethyl-7-(naphthalen-1-yl)-4,7-dihydrotetrazolo[1,5-a]pyrimidine-6-carboxylate]	52.7	1.7	12.5	49.0	–	–
CC1=C(C(=O)OC(C)C)C(c2ccc3ccccc3c2)C2=C(CCCC2=O)N1 (stereo not shown) [PT-157, isopropyl 2-methyl-4-(naphthalen-2-yl)-5-oxo-1,4,5,6,7,8-hexahydroquinoline-3-carboxylate]	62.3	15.3	16.0	37.1	–	–
CCOC(=O)C1=C(C)Nc2nnnn2C1c1cccc2ccccc12 (stereo not shown) [PT-192, ethyl 5-methyl-7-(naphthalen-1-yl)-4,7-dihydrotetrazolo[1,5-a]pyrimidine-6-carboxylate]	–	0	23.0	29.0	52.3	–
CCOC(=O)C1=C(C)NC(C)=C(C(=O)OCC)C1c1ccc2c(c1)OCCO2 [PT-109, diethyl 4-(2,3-dihydrobenzo[b][1,4]dioxin-6-yl)-2,6-dimethyl-1,4-dihydropyridine-3,5-dicarboxylate]	–	18.1	16.0	34.2	–	–
CC1=C(C(=O)OCc2ccccc2)C(c2ccc(N(C)C)c3ccccc23)n2nnnc2N1 (stereo not shown) [PT-032, benzyl 7-(4-(dimethylamino)naphthalen-1-yl)-5-methyl-4,7-dihydrotetrazolo[1,5-a]pyrimidine-6-carboxylate]	63.6	11.5	19.0	50.5	–	–
CC1=C(C(=O)OC(C)Cc2ccccc2)C(c2cccc3ccccc23)n2nnnc2N1 (stereo not shown) [PT-064, 1-phenylpropan-2-yl 5-methyl-7-(naphthalen-1-yl)-4,7-dihydrotetrazolo[1,5-a]pyrimidine-6-carboxylate]	79.5	7.2	20.5	37.5	–	–
CC1=C(C(=O)OCc2ccccc2)C(c2cc3ccccc3o2)n2nnnc2N1 (stereo not shown) [PT-045, benzyl 7-(benzofuran-2-yl)-5-methyl-4,7-dihydrotetrazolo[1,5-a]pyrimidine-6-carboxylate]	92	23.8	10.0	70.0	–	–
C=CCOC(=O)C1=C(C)Nc2nnnn2C1c1cccc2ccccc12 (stereo not shown) [PT-319, allyl 5-methyl-7-(naphthalen-1-yl)-4,7-dihydrotetrazolo[1,5-a]pyrimidine-6-carboxylate]	55.7	4.5	10.0	41.0	–	–
CCOC(=O)C1=C(C)NC(C)=C(C(=O)OCC)C1c1ccccc1Br [PT-430, diethyl 4-(2-bromophenyl)-2,6-dimethyl-1,4-dihydropyridine-3,5-dicarboxylate]	95.3	91	10.0	21.5	–	55.6
CCOC(=O)C1=C(C)NC(C)=C(C(=O)OCC)C1c1ccc2ccccc2c1 [PT-107, diethyl 2,6-dimethyl-4-(naphthalen-2-yl)-1,4-dihydropyridine-3,5-dicarboxylate]	91.9	25.9	11.5	48.0	–	–
CCOC(=O)C1=C(C)N(C)C(C)=C(C(=O)OCC)C1c1cccc2ccccc12 [PT-191, diethyl 1,2,6-trimethyl-4-(naphthalen-1-yl)-1,4-dihydropyridine-3,5-dicarboxylate]	63.2	0	26.5	68.0	–	–
CCOC(=O)C1=C(C)Nc2nnnn2C1c1cccc(Oc2cccc(C(=O)OCC)c2)c1 (stereo not shown) [PT-494, ethyl 7-(3-(3-(ethoxycarbonyl)phenoxy)phenyl)-5-methyl-4,7-dihydrotetrazolo[1,5-a]pyrimidine-6-carboxylate]	71.8	6.7	–	–	–	2
CC1=C(C(=O)OCc2ccccc2)C(c2ccc(N(C)C)c3ccccc23)c2cn[nH]c2N1 (stereo not shown) [PT-332, benzyl 4-(4-(dimethylamino)naphthalen-1-yl)-6-methyl-4,7-dihydro-1H-pyrazolo[3,4-b]pyridine-5-carboxylate]	20	11.3	–	–	–	2.7
CC1=C(C(=O)NCCCCc2ccccc2)C(c2ccsc2)C2=C(CCCC2=O)N1 (stereo not shown) [PT-164, 2-methyl-5-oxo-N-(4-phenylbutyl)-4-(thiophen-3-yl)-1,4,5,6,7,8-hexahydroquinoline-3-carboxamide]	32	10.2	–	–	–	–
COc1ccccc1COC(=O)C1=C(C)Nc2nnnn2C1c1c(C)cccc1C (stereo not shown) [PT-262, 2-methoxybenzyl 7-(2,6-dimethylphenyl)-5-methyl-4,7-dihydrotetrazolo[1,5-a]pyrimidine-6-carboxylate]	70	15.1	–	–	–	6.9
CC1=C(C(=O)OCc2ccccc2)C(c2occc2-c2ccccc2)n2nnnc2N1 (stereo not shown) [PT-351, benzyl 5-methyl-7-(3-phenylfuran-2-yl)-4,7-dihydrotetrazolo[1,5-a]pyrimidine-6-carboxylate]	81.6	49.9	–	–	–	–
CC1=C(C(=O)O[C@@H](C)c2ccccc2)C(c2sc3ccccc3c2C)n2nccc2N1 (stereo partly drawn) [PT-244, (S)-1-phenylethyl 5-methyl-7-(3-methylbenzo[b]thiophen-2-yl)-4,7-dihydropyrazolo[1,5-a]pyrimidine-6-carboxylate]	68.7	66.2	–	–	–	44
CCOC(=O)C1=C(C)Nc2nnnn2C1c1cccc(OCc2ccc(C(=O)OCC)cc2)c1 (stereo not shown) [PT-497, ethyl 7-(3-(4-(ethoxycarbonyl)benzyloxy)phenyl)-5-methyl-4,7-dihydrotetrazolo[1,5-a]pyrimidine-6-carboxylate]	59	22.2	–	–	–	15.4
CCOC(=O)C1=C(C)NC(C)=C(C(=O)OCC)C1c1ccccc1-c1ccc(NS(C)(=O)=O)cc1 [PT-428, diethyl 2,6-dimethyl-4-(4′-(methylsulfonamido)biphenyl-2-yl)-1,4-dihydropyridine-3,5-dicarboxylate]	45.1	5.3	–	–	–	1
CC1=C(C(=O)O[C@@H](C)c2ccccc2)C(c2c3ccccc3cc3ccccc23)n2nnnc2N1 (stereo partly drawn) [PT-055, (S)-1-phenylethyl 7-(anthracen-9-yl)-5-methyl-4,7-dihydrotetrazolo[1,5-a]pyrimidine-6-carboxylate]	56.3	7.6	–	–	–	–
CCOC(=O)C1=C(C)NC(C)=C(C(=O)OCC)C1c1ccsc1 [PT-110, diethyl 2,6-dimethyl-4-(thiophen-3-yl)-1,4-dihydropyridine-3,5-dicarboxylate]	41.8	0	–	–	–	–
